Data: US20190276481A1, “Liver Prodrugs of Mitochondrial Proton Ionophores” (NEUROVIVE PHARMACEUTICAL AB, priority 2016, published 2019)

Key:
[1] = test system: isolated rat liver mitochondria; experiment: Uncoupling potential in isolated mitochondria (free mitochondrial uncoupling, oxygraph respiration); format: biochemical; settings: fixed concentrations, vs DMSO control, FIGS. 1, 2, 4-6
Experimental: The potency of mitochondrial uncoupling without prodrug metabolism may be tested as follows:
Isolated rat liver mitochondria are prepared according to Hansson et al (Hansson et al (Brain Res. 2003 Jan. 17; 960(1-2):99-111.). Respiration is measured at a constant temperature of 37° C. in a high-resolution oxygraph (Oxygraph-2k Oroboros Instruments, Innsbruck, Austria) in 2 ml glass chambers with stirrer speed 750 rpm. Data is recorded with DatLab software (Oroboros Instruments, Innsbruck, Austria) with sampling rate set to 2 s at an oxygen concentration in the range of 210-50 μM O2. If necessary, reoxygenation is performed by partially raising the chamber stopper for a brief air equilibration. Instrumental background oxygen flux is measured in a separate set of experiments and automatically corrected for in the ensuing experiments according to the manufacturer's instructions. To measure respiration of isolated mitochondria, samples are suspended in a mitochondrial respiration medium (MiR05) containing sucrose 110 mM, HEPES 20 mM, taurine 20 mM, K-lactobionate 60 mM, MgCl2 3 mM, KH2PO4 10 mM, EGTA 0.5 mM, BSA 1 g/l, pH 7.1. After reaching stabilized respiration in the presence of substrates (malate (5 mM), glutamate (5 mM), pyruvate (5 mM) and succinate (10 mM)), state 3 respiration is induced by supplementation with ADP (1 mM) followed by addition of oligomycin (1 μg/ml, ATP-synthase inhibitor) causing state 4O. State 4O is a respiratory state dependent on the back-flux of protons across the mitochondrial membrane due to inhibition of the ATP-synthase and in the presence of saturating substrate concentrations and ADP. Drug candidates and their respective payloads of known protonophores are given at fixed concentrations to induce uncoupled respiration. Rotenone (2 μM, complex I [CI] inhibitor), antimycin-A (1 μg/ml, complex III [CIII] inhibitor) and sodium azide (10 mM) are then added to inhibit the ETS providing the residual, non-mitochondrial oxygen consumption which all respiratory values are corrected for.

[2] = test system: HepG2 cells (hepatic) vs platelets (extra-hepatic); experiment: In vitro uncoupling in HepG2 cells (hepatic) vs platelets (extra-hepatic); format: cell-based; settings: high maximal uncoupling at low concentrations in HepG2 cells; FIGS. 7-12
Experimental: (§1) For respiration measurements in HepG2 cells and platelets, cells are suspended in a mitochondrial respiration medium MiR05 at 37° C. in a high-resolution oxygraph (Oxygraph-2k Oroboros Instruments, Innsbruck, Austria). […] To evaluate the contribution of respiration independent of ADP phosphorylation, oligomycin (1 μg/ml, ATP-synthase inhibitor) is sequentially added inducing LEAK respiration state (a respiratory state where oxygen consumption is dependent on the back-flux of protons across the mitochondrial membrane). Drug candidates and known protonophores are carefully titrated to induce maximal uncoupled respiration/maximal rate of the ETS (electron transport system) at endogenous substrate supply and continued until a decrease or at least no further increase of uncoupled respiration is observed. Rotenone (2 μM, complex I [CI] inhibitor) and antimycin-A (1 μg/ml, complex III [CIII] inhibitor) are then added to inhibit the ETS, thus providing the residual, non-mitochondrial oxygen consumption, which all values were corrected for.
(§2) The potency of mitochondrial uncoupling with prodrug metabolism be tested as follows: • a) HepG2 cells (to simulate uncoupling with liver cell metabolism) • b) Platelets (to simulate uncoupling in blood)
It is advantageous to have an increased level of uncoupling in hepatic tissue as compared to extra-hepatic tissue. To test for this, compounds were tested in an in vitro uncoupling assay (see Assays for evaluating mitochondrial uncoupling in intact liver cells and platelets in general methods) in HepG2 cells (hepatic) vs platelets (extra-hepatic).

[3] = Relative liver exposure vs extra-hepatic organs: salicylanilide levels after oral dosing; format: in vivo; settings: CD-1 mice
Experimental: For example, mice or rats are dosed with 1 or 3 mg/kg of the compound of the invention i.v. or 1, 5 or 10 mg/kg of the compound of the invention p.o. Blood samples are taken at 5 min, 15 min, 1 h, 4 h and 24 h intervals, and the concentration of the compound of the invention in the sample is determined via LCMS-MS. The time-course of plasma or whole blood concentrations can then be used to derive key parameters such as the area under the plasma or blood concentration-time curve (AUC—which is directly proportional to the total amount of unchanged drug that reaches the systemic circulation), the maximum (peak) plasma or blood drug concentration, the time at which maximum plasma or blood drug concentration occurs (peak time), additional factors which are used in the accurate determination of bioavailability include: the compound's terminal half-life, total body clearance, steady-state volume of distribution and F %.
As it is advantageous to have an increased ratio of liver uncoupling versus extra hepatic uncoupling, 3 mg/kg salicylanilide or 10 mg/kg compound 14 or 10 mg/kg compound 23 (which releases salicylanilide) were dosed orally to CD-1 mice and levels of salicylanilide were measured in blood, muscle and liver samples before and after dosing (see general methods). The ratio of liver vs extra-hepatic salicylanilide was then assessed, with a high ratio desirable, as this is anticipated to lead to reduced off-target uncoupling and toxicity.

[4] = Hsaio et al., 2005; cited from earlier work
[5] = Caco-2 permeability assay; format: in vitro ADME; settings: human
Experimental: (§3) The permeability coefficient (Papp) is calculated from the following equation:
(§4) Where dQ/dt is the amount of compound in basal (A-B) or apical (B-A) compartment as a function of time (nmol/s). C0 is the initial concentration in the donor (apical or basal) compartment (Mean of T=0) (nmol/mL) and A is the area of the transwell (cm^2).
(§5) The efflux ratio is then calculated as: […]
(§6) Cell permeability may be tested as follows: The test compound is dissolved to 10 mM in DMSO and then diluted further in buffer to produce a final 10 μM dosing concentration. The fluorescence marker lucifer yellow is also included to monitor membrane integrity. Test compound is then applied to the apical (A) surface of Caco-2 cell monolayers and compound permeation into the basolateral (B) compartment is measured. This is performed in the reverse direction (basolateral to apical) to investigate active transport (efflux). LC-MS/MS is used to quantify levels of both the test and standard control compounds (such as Propanolol and Acebutolol).

HepG2 cells = experiment: Mitochondrial uncoupling assay in intact HepG2 liver cells; format: cell-based; settings: FIG. 3
Experimental: as §1, §2

Caco-2 cell monolayers = experiment: Caco-2 permeability assay; format: in vitro ADME
Experimental: as §3, §4, §5, §6

Row | Structure (SMILES) | uncoupling in isolated mitochondria (without prodrug metabolism) [1] | selectivity of uncoupling, HepG2 cells vs platelets [2] | also measured
1 | COP(=O)(N[C@@H](C)C(=O)OC(C)C)OCOc1ccc([N+](=O)[O-])cc1[N+](=O)[O-] (stereo partly shown) [Compound 1] | reduced, little or no uncoupling | – | –
2 | CC(C)OC(=O)[C@H](C)NP(=O)(N[C@@H](C)C(=O)OC(C)C)OCOc1ccc([N+](=O)[O-])cc1[N+](=O)[O-] [Compound 2] | reduced, little or no uncoupling | – | –
3 | CC(C)OC(=O)[C@H](C)NP(=O)(N[C@@H](C)C(=O)OC(C)C)OCOc1ccc([N+](=O)[O-])cc1 [Compound 4] | reduced, little or no uncoupling | – | –
4 | CC(C)OC(=O)[C@H](C)NP(=O)(N[C@@H](C)C(=O)OC(C)C)OCOc1ccc(Cl)cc1C(=O)Nc1ccc([N+](=O)[O-])cc1Cl [Compound 6] | reduced, little or no uncoupling | selective uncoupling in HepG2 cells as compared to platelets | –
5 | C[C@H](NP(=O)(N[C@@H](C)C(=O)OCC(C)(C)C)OCOc1ccc([N+](=O)[O-])cc1)C(=O)OCC(C)(C)C [Compound 9] | reduced, little or no uncoupling | selective uncoupling in HepG2 cells as compared to platelets | –
6 | CC(C)OC(=O)[C@H](Cc1ccccc1)NP(=O)(N[C@@H](Cc1ccccc1)C(=O)OC(C)C)OCOc1ccc([N+](=O)[O-])cc1[N+](=O)[O-] [Compound 11] | reduced, little or no uncoupling | selective uncoupling in HepG2 cells as compared to platelets | –
7 | CC(C)OC(=O)[C@H](Cc1ccccc1)NP(=O)(N[C@@H](Cc1ccccc1)C(=O)OC(C)C)OCOc1ccccc1C(=O)Nc1ccccc1 [Compound 14] | reduced, little or no uncoupling | selective uncoupling in HepG2 cells as compared to platelets | ratio of liver to extra-hepatic exposure (in words) [3]: desirable ratios of liver to extra-hepatic exposure; Salicylanilide in blood after 1 h ([3]; 3 mg/kg salicylanilide or 10 mg/kg compound 14 or 23): BQL
8 | COP(=O)(N[C@@H](C)C(=O)OC(C)C)OCOc1ccc(Cl)cc1C(=O)Nc1ccc([N+](=O)[O-])cc1Cl (stereo partly shown) [Compound 18] | reduced, little or no uncoupling | selective uncoupling in HepG2 cells as compared to platelets | –
9 | C[C@H](NP(=O)(N[C@@H](C)C(=O)OCC(C)(C)C)OCOc1ccccc1C(=O)Nc1ccccc1)C(=O)OCC(C)(C)C [Compound 23] | reduced, little or no uncoupling | selective uncoupling in HepG2 cells as compared to platelets | ratio of liver to extra-hepatic exposure (in words) [3]: desirable ratios of liver to extra-hepatic exposure
10 | O=[N+]([O-])c1ccc(O)c([N+](=O)[O-])c1 [DNP, 2,4 dinitrophenol] | potent uncoupling | – | acute administration that can be lethal [4]: 20-50 mg/kg body weight; efflux ratio at 10 µM [5]: 1.1; Papp A→B at 10 μM ([5]; apical to basolateral): 24 ×10⁻⁶ cm/s; Papp B→A at 10 μM ([5]; basolateral to apical): 27 ×10⁻⁶ cm/s
11 | O=C(Nc1ccccc1)c1ccccc1O [Salicylanilide, 2-Hydroxy-N-phenylbenzamide] | – | – | maximal uncoupling effect compared to DNP (HepG2 cells): lesser maximal uncoupling effect; uncoupling potency compared to DNP (HepG2 cells): more potent compared to DNP; ratio of liver to extra-hepatic exposure (in words) [3]: desirable ratios of liver to extra-hepatic exposure; Caco-2 efflux ratio compared to DNP (in words) (Caco-2 cell monolayers): reduced efflux ratio; Caco-2 permeability compared to DNP (in words) (Caco-2 cell monolayers): increased permeability; efflux ratio [5]: 0.8; Papp A→B ([5]; apical to basolateral): 39.5 ×10⁻⁶ cm/s; Papp B→A ([5]; basolateral to apical): 33 ×10⁻⁶ cm/s
